Among the data in PubChem BioAssay (NCI) are TGI and GI50 values, retold here.

“And” between values parts separate entries of the source, which are not always exact repeats. Equal entries are not always repeated.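 How tested: cells in 96-well plates exposed to compound for 48 hours at five concentrations. Here, GI50 denotes the concentration required for 50% inhibition of growth. TGI marks complete inhibition of growth.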

Among the test systems are KM20L2 colon; HCC-2998 colon; M19-MEL melanoma; NCI-H522 lung; SNB-75 CNS; K-562 leukemia; DMS 114 small cell lung; HOP-92 NSCLC; SK-MEL-28 melanoma; A549 NSCLC.
Holding throughout (experiment): growth of human tumour cells (NCI), 48 h

With `Nc1ncnc2c1ncn2C1OC(CSC(F)(F)F)C(O)C1O` (stereo not given), the TGI in the assay with KM20L2 colon, with HCC-2998 colon, in the assay on M19-MEL melanoma, in the assay with NCI-H522 lung, with SNB-75 CNS and in the assay with K-562 leukemia was above 100 µM in each case. Besides, the TGI with DMS 114 small cell lung, in the assay with HOP-92 NSCLC, in the assay with SK-MEL-28 melanoma and with A549 NSCLC was above 100 µM in each case.
With `CCC1=C(C)/C(=C/c2[nH]c(C(Br)Br)c(CC)c2C)N=C1C(Br)Br`, the TGI with KM20L2 colon is above 100 µM; with HCC-2998 colon it was 52.9 µM; with M19-MEL melanoma it was 79.1 µM; in the assay with NCI-H522 lung, 38.1 µM; in the assay on SNB-75 CNS, 90.8 µM; with K-562 leukemia, above 100 µM. Also, the TGI in the assay on DMS 114 small cell lung is 88.6 µM; in the assay on HOP-92 NSCLC, above 100 µM; in the assay with SK-MEL-28 melanoma it was above 100 µM; in the assay with A549 NSCLC, above 100 µM.
In the case of `NC(C/[N+]([O-])=N/O)C(=O)O` (stereo not given), the TGI is above 500 µM in the assay on KM20L2 colon; > 100 µM and 302 µM in the assay with HCC-2998 colon; above 373 µM with M19-MEL melanoma; > 59.6 µM and 284 µM in the assay with NCI-H522 lung; above 500 µM in the assay on SNB-75 CNS; above 419 µM in the assay with K-562 leukemia. Moreover, the TGI in the assay with DMS 114 small cell lung is 10.9 µM; with HOP-92 NSCLC, > 100 µM and 209 µM; with SK-MEL-28 melanoma it was above 500 µM; in the assay on A549 NSCLC it was > 100 µM and 67.9 µM. In addition, the GI50 is 8.03 µM and 33.6 µM in the assay on NCI-H522 lung; 13.4 µM and 10.2 µM and 101 µM in the assay on SNB-75 CNS; 29.5 µM and 11.2 µM and 15 µM with K-562 leukemia; > 91.7 µM and 71.4 µM and 33.4 µM in the assay on HOP-92 NSCLC; > 47.8 µM and > 100 µM and 24.5 µM in the assay on SK-MEL-28 melanoma; 0.24 µM with A549 NSCLC.
Regarding `Cc1ccc(NC(=O)CC/C(CC(=O)C(C)(C)C)=N/NC(=O)C(N)=O)cc1C`, the TGI in the assay with KM20L2 colon, in the assay with HCC-2998 colon, with M19-MEL melanoma, in the assay with NCI-H522 lung, with SNB-75 CNS and in the assay with K-562 leukemia was above 100 µM each time. In addition, the TGI in the assay on DMS 114 small cell lung, in the assay on HOP-92 NSCLC, in the assay on SK-MEL-28 melanoma and with A549 NSCLC was above 100 µM throughout.
For the molecule `NC(N)=NS(=O)(=O)c1ccc(Nc2c3ccccc3nc3c(C(=O)N4CCN(CCO)CC4)cccc23)cc1`, the TGI in the assay on KM20L2 colon, with HCC-2998 colon, with M19-MEL melanoma, in the assay with NCI-H522 lung, in the assay on SNB-75 CNS and in the assay on K-562 leukemia was above 100 µM in each case. In addition, the TGI with DMS 114 small cell lung, in the assay with HOP-92 NSCLC, with SK-MEL-28 melanoma and with A549 NSCLC was above 100 µM each time.
On to `N#CNC(N)=NCCO`, for which the TGI in the assay on KM20L2 colon, in the assay on HCC-2998 colon, in the assay on M19-MEL melanoma, with NCI-H522 lung, in the assay on SNB-75 CNS and with K-562 leukemia was above 100 µM in each case. Also, the TGI in the assay with DMS 114 small cell lung, in the assay on HOP-92 NSCLC, in the assay on SK-MEL-28 melanoma and in the assay on A549 NSCLC was above 100 µM throughout.
Regarding `COc1ccc(CN2C(=O)C(Cc3cc(OC)c(OC)c(C)c3OC)NC(=O)/C2=C/c2cc(OC)c(OC)c(C)c2OC)cc1` (stereo not given), the TGI in the assay with KM20L2 colon was 59.2 µM; in the assay on HCC-2998 colon it was 90.9 µM; in the assay on M19-MEL melanoma it was 37.7 µM; in the assay on NCI-H522 lung, 50 µM; in the assay with SNB-75 CNS it was above 100 µM; in the assay with K-562 leukemia it was above 100 µM. Besides, the TGI with DMS 114 small cell lung was 97.3 µM; in the assay with HOP-92 NSCLC, 67.7 µM; in the assay on SK-MEL-28 melanoma, above 100 µM; in the assay with A549 NSCLC it was above 100 µM.
In the case of `COC1C(O)C(C)OC(OC2C(Oc3cccc4c(O)c5c(=O)oc6ccc(C)c7c(=O)oc(c34)c5c67)OC(C)C3O[C@H](c4ccccc4)OC32)C1O` (stereo not given in full), the TGI with KM20L2 colon came out at 2.98 µM; in the assay with HCC-2998 colon, 3.41 µM; with M19-MEL melanoma, 3.56 µM; in the assay with NCI-H522 lung, 6.78 µM; with SNB-75 CNS, 7.65 µM; with K-562 leukemia, 23.2 µM. For the same molecule, the TGI was found to be 2.69 µM in the assay on DMS 114 small cell lung, 7.21 µM in the assay with HOP-92 NSCLC, 3.92 µM in the assay with SK-MEL-28 melanoma and 2.53 µM in the assay on A549 NSCLC. Besides, the GI50 was 0.276 µM in the assay with HCC-2998 colon; 0.284 µM and 0.262 µM in the assay on NCI-H522 lung; 0.309 µM and 0.0798 µM in the assay with K-562 leukemia; 0.0823 µM in the assay on HOP-92 NSCLC.
Turning to `[C-]#[O+].[Cl][Sn]([Cl])[Cl].[Cl][Sn]([Cl])[Cl].[Pt].c1ccc([PH+](c2ccccc2)c2ccccc2)cc1.c1ccc([PH+](c2ccccc2)c2ccccc2)cc1`, the GI50 in the assay on KM20L2 colon was above 100 µM; in the assay with HCC-2998 colon, 60.7 µM; in the assay with M19-MEL melanoma it was 41 µM; in the assay on NCI-H522 lung it was 23.3 µM; in the assay with SNB-75 CNS it was above 100 µM; in the assay on K-562 leukemia it was 34.8 µM. For the same molecule, the GI50 in the assay on DMS 114 small cell lung is 21.8 µM; in the assay on HOP-92 NSCLC, 17.1 µM; in the assay on SK-MEL-28 melanoma, 69.5 µM; with A549 NSCLC, 44.1 µM. Moreover, the TGI is above 100 µM in the assay on KM20L2 colon; above 100 µM with HCC-2998 colon; above 100 µM in the assay with M19-MEL melanoma; 56.7 µM in the assay with NCI-H522 lung; above 100 µM in the assay on SNB-75 CNS; above 100 µM with K-562 leukemia. Besides, the TGI with DMS 114 small cell lung is 51.2 µM; in the assay with HOP-92 NSCLC it was 46.8 µM; in the assay on SK-MEL-28 melanoma, above 100 µM; with A549 NSCLC, above 100 µM.
With `O=C(Cc1nc2ccccc2c(=O)n1-c1c(Cl)cccc1Cl)c1ccncc1`, the TGI in the assay on KM20L2 colon was 85.9 µM; with HCC-2998 colon, 44.2 µM; in the assay on M19-MEL melanoma it was 39.6 µM; in the assay on NCI-H522 lung it was 49.5 µM; in the assay with SNB-75 CNS it was 68.2 µM; with K-562 leukemia, above 100 µM. In addition, the TGI in the assay with DMS 114 small cell lung is 78.6 µM; in the assay on HOP-92 NSCLC, 69.8 µM; with SK-MEL-28 melanoma, 43.6 µM; with A549 NSCLC, 46.9 µM.
As to `CC1(C)CCC[C@@]2(C)C1C[C@H](O)[C@@]1(C)O[C@@](C)([C@H](O)CO)CCC21` (stereo not given in full), the TGI in the assay on KM20L2 colon is above 100 µM; with HCC-2998 colon, above 100 µM; with M19-MEL melanoma it was above 100 µM; in the assay on NCI-H522 lung it was 89.8 µM; with SNB-75 CNS it was 58.9 µM; with K-562 leukemia, above 100 µM. For the same molecule, the TGI was 90.2 µM with DMS 114 small cell lung, 70.7 µM with HOP-92 NSCLC, above 100 µM in the assay with SK-MEL-28 melanoma and above 100 µM in the assay with A549 NSCLC.
Consider `O=S1CSCS1` (stereo not given), for which the TGI in the assay on KM20L2 colon, in the assay with HCC-2998 colon, in the assay with M19-MEL melanoma, in the assay on NCI-H522 lung, with SNB-75 CNS and with K-562 leukemia was above 100 µM each time. Besides, the TGI in the assay with DMS 114 small cell lung, in the assay on HOP-92 NSCLC, in the assay on SK-MEL-28 melanoma and in the assay on A549 NSCLC was above 100 µM throughout.
